From article PMC9698483, “Berbamine Reduces Chloroquine-Induced Itch in Mice through Inhibition of MrgprX1” (International Journal of Molecular Sciences, 2022)
Where “and” joins values, the source holds several entries; their conditions need not be identical. Identical values can stand only once.

What was measured:
[1] = test system: CQ-sensitive strain of P. falciparum; set-up: method as in doi:10.1002/ddr.430300405; details: in vitro; read-out: IC50 antimalaria effect, CQ-sensitive strain; cited from earlier work
PAR2 = target: T1, PAR2 (Homo sapiens, UniProt P55085); experiment: PAR2-AP-induced activation of PAR2 in HT29 cells (calcium); assay type: cell-based; details: 30 μM compound, 10 min prior to 30 μM PAR2-AP
T1 construct: endogenous in cells; host or cells: HT29
T1 sequence (P55085 26-397): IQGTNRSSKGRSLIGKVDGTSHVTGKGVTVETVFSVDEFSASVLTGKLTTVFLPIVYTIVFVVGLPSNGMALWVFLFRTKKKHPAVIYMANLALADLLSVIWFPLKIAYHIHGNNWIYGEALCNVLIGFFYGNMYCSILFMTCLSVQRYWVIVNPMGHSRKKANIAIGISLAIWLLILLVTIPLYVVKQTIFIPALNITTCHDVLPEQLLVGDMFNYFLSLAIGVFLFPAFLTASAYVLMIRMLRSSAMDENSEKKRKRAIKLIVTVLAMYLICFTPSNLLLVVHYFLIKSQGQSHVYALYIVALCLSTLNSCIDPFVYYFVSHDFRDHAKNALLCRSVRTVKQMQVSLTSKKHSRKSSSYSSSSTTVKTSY
Procedure: To investigate the effect of berbamine on other pruritogenic GPCRs, we observed the effect of berbamine on histamine H1 receptor (H1R), histamine H4 receptor (H4R), MrgprC11, MrgprX4, PAR2, and TGR5.
Figure 3 Effects of berbamine on the activity of other pruritogenic GPCRs: (A,B) Effect of berbamine on histamine 1 receptor (H1R) and histamine 4 receptor (H4R). H1R- and H4R-expressing HEK293T cells were pretreated with 30 μM BBM for 10 min prior to 100 μM histamine treatment. […] (C) Effect of berbamine on PAR2. HT29 cells were pretreated with BBM for 10 min prior to 30 μM PAR2-AP treatment. […] (D) Effect of berbamine on MrgprC11. MrgprC11-expressing HEK293T cells were pretreated with BBM for 10 min prior to 100 μM […] treatment. (E) Effect of berbamine on MrgprX4. MrgprX4-expressing HEK293T cells were pretreated with BBM for 10 min prior to 80 μM DCA treatment. (F) Effect of berbamine on TGR5. TGR5 activity was measured using a YFP fluorescence quenching assay. CHO-K1 cells coexpressing TGR5 and a halide sensor YFP were pretreated with BBM and 80 μM DCA for 10 min prior to I^- treatment. Results were summarized as means ± S.E. (n = 6). NTC, nontransfected cells.
Intracellular calcium levels were measured using a Fluo-4 NW calcium assay kit (Invitrogen, Carlsbad, CA) as per the manufacturer’s protocol in HEK293T and HT29 cells. […]

CQ-induced pruritus = CQ-induced pruritus mouse model (scratching bouts); assay type: in vivo, BALB/c mice; details: 30 mg/kg intraperitoneally, 30 min before s.c. CQ (400 µg/50 µL), 30 min recording
Procedure: To investigate the antipruritic effect of berbamine, we observed the effect of berbamine on pruritogen-induced scratching behavior in BALB/c mice. Mice were transferred to clear cages and treated with berbamine intraperitoneally after a 30 min acclimatization period. Mouse behavior was recorded for 30 min right after the subcutaneous injection of pruritogens to the nape 30 min after berbamine treatment (Figure 7A). […] We further investigated the effect of berbamine on pruritus caused by other pruritogens.
Figure 7 Effect of berbamine on acute pruritogen-induced pruritus in mice: (A) Scheme of acute pruritogen-induced pruritus mouse model. […] Statistical significance of differences between each group and CQ group was assessed using one-way ANOVA with Tukey’s post hoc test. * p < 0.05, ** p < 0.01, *** p < 0.001. […] Statistical significance of differences was determined using Student’s t-test. […]
[…] six-week-old BALB/c male mice were purchased from DBL (Chungcheong-do, Republic of Korea), and an additional 1 week was given for accommodation. […] After 30 min, pruritogen compounds (i.e., CQ, histamine, PAR2-AP, and DCA) were subcutaneously administered into the nape, and scratching bouts were recorded for 30 min. […] The total number of scratching bouts was counted by recording the number of scratching bouts in the recorded video over 30 min of observation time.

Compound: COc1cc2c3cc1Oc1c(OC)c(OC)cc4c1[C@@H](Cc1ccc(O)c(c1)Oc1ccc(cc1)C[C@@H]3N(C)CC2)N(C)CC4 [berbamine]
- IC50 [1]: 603 ± 47 nM
- effect on PAR2-AP-induced activation of PAR2 (PAR2): did not affect
- attenuation of CQ-induced pruritus (total scratching bouts) (CQ-induced pruritus): 80% and ~ 80%
